Where “and” joins values, the source holds several entries; their conditions need not be identical. Equal entries are not always repeated. Entries after “also recorded” stand apart in the source; their conditions may differ. Where two headings read alike, the source gives them in different places.
Legend:
guanylate cyclase [1] = settings: cited from earlier work
[2] = system: Escherichia coli heat-stable enterotoxin (ST)-induced intestinal fluid secretion; type: in vivo, suckling mice
guanylate cyclase [3] = target: guanylate cyclase (Rattus norvegicus, UniProt P23897); experiment: biochemical; set-up: species or system Sprague-Dawley rat; settings: for effect on ST-induced guanylate cyclase activity (in words): ST-activated; for inhibition at 1000 µM / % Inhibition of ST-activated guanylate cyclase activity: 1.0 mM; for % Inhibition of ST-activated guanylate cyclase activity: ST-activated (6 units/ml)
Chain of guanylate cyclase (Rattus norvegicus, UniProt P23897) (P23897 23-1072): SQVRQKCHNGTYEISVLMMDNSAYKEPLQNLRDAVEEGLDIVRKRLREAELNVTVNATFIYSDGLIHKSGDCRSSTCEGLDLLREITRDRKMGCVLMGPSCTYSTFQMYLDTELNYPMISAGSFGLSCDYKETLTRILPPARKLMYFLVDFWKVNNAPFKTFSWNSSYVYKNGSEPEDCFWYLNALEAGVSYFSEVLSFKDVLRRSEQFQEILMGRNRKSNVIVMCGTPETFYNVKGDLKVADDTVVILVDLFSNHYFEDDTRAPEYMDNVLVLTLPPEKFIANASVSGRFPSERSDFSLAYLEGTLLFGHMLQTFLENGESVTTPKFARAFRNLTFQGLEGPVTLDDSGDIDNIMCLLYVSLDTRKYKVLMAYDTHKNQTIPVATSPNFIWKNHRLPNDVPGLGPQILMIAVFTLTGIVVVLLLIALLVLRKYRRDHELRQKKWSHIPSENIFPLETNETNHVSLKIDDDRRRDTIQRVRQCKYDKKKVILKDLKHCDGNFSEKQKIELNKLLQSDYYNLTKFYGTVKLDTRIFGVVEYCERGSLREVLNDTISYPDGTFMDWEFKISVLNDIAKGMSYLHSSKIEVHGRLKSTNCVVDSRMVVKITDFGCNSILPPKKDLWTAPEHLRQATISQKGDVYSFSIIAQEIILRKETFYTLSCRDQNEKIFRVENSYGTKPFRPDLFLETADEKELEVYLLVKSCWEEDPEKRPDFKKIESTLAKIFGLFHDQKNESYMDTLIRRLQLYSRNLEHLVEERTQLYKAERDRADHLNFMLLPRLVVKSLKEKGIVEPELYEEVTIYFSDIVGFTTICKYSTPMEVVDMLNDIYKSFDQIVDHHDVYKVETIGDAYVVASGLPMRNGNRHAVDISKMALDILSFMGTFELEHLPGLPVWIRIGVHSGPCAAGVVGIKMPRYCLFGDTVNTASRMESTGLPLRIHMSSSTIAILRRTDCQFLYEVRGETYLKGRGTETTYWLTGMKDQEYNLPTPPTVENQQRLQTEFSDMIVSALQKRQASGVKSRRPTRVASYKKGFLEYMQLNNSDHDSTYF

[4] = system: 8-bromo cyclic GMP-induced intestinal fluid secretion; set-up: species or system suckling mice; settings: mouse, in vivo
[5] = system: basal intestinal fluid secretion; set-up: species or system suckling mice; settings: mouse, in vivo, sc
ST = settings: cited from earlier work
[6] = system: intestinal fluid secretion; settings: in vivo; cited from earlier work
[7] = read-out: % Inhibition of ST-activated guanylate cyclase activity, ST-activated (6 units/ml)
[8] = read-out: % Inhibition of basal guanylate cyclase activity, basal

Compound: N[C@@H](CS[35S]C[C@H](N)C(=O)O)C(=O)O [^35 S-cystine]
- effect on guanylate cyclase (in words) (guanylate cyclase [1]): reversible loss of enzyme activity

Compound: c1ccc2c(CC3=NCCN3)cccc2c1 [Naphazoline, naphazoline]
- effect against ST (in words) ([2]; 10 mM): effective
- intestinal-fluid ratio ± SEM, experiment #1 ([2]; mouse, in vivo): .150 ± .005
- intestinal-fluid ratio ± SEM, experiment #2 ([2]; mouse, in vivo): .123 ± .005
- death of mice (N = 3): ALL DEAD
- margin to lethal dose (in words) (mouse, in vivo): only one log less than a lethal dose

Compound: N[C@@H](CSSC[C@H](N)C(=O)O)C(=O)O [L-cystine]
- effect on ST-induced guanylate cyclase activity (in words) (guanylate cyclase [3]; 1 mM): significantly reduced
- effect on basal guanylate cyclase activity (in words) (guanylate cyclase [3]; 1 mM): neither drug affected basal activity
- effect on basal guanylate cyclase activity (in words) (guanylate cyclase [3]; concentration not given): Neither compound inhibited basal guanylate cyclase activity
- inhibition at 1000 µM (guanylate cyclase [3]; [7]): 39%
- inhibition at 1000 µM (guanylate cyclase [3]; [8]): 0%
- effect on ST-induced intestinal secretion (in words) ([2]; mouse, in vivo): significantly reduced
- intestinal fluid ratio (intestinal weight to remaining body weight), ST-induced ([2]; mouse, in vivo): 0.0940±0.004 and 0.1288±0.003
- effect on ST-induced secretion (in words) ([2]; mouse, in vivo, sc): neither compound reduced intestinal secretion
- intestinal fluid ratio (intestinal weight to remaining body weight), ST-induced ([2]; mouse, in vivo, sc): 0.1115±0.006
- Intestinal:Body Wt. Ratio, 8-bromo cyclic GMP-induced [4]: 0.1191 ± 0.004
- effect on 8-bromo cyclic GMP-induced intestinal secretion (in words) [4]: Neither compound altered cyclic GMP-induced intestinal secretion
- Intestinal:Body Wt. Ratio, 8-bromo cyclic GMP-induced ([4]; sc): 0.1043 ± 0.004
- effect on basal secretion (in words) [5]: Neither agent given s.c. or i.g. significantly altered basal secretion

Compound: OCCS [2-mercaptoethanol]
- effect on biological activity of ST (in words) (ST): loses biological activity promptly

Compound: NO [hydroxylamine]
- effect on guanylate cyclase (in words) (guanylate cyclase [1]): activates guanylate cyclase
- effect on intestinal ion transport (in words) [6]: causes intestinal ion transport alterations similar to those seen with ST

Compound: CC(=O)N[C@@H](CS)C(=O)O [Acetylcysteine, acetylcysteine]
- % Inhibition of ST-activated guanylate cyclase activity (guanylate cyclase [3]): 14%
- % Inhibition of ST-activated guanylate cyclase activity (guanylate cyclase [3]; listed as acetylcysteine): 15%
- effect on basal guanylate cyclase activity (in words) (guanylate cyclase [3]; 1 mM): did not alter basal guanylate cyclase activity; also recorded: None of the other sulfhydryl compounds (1 mM) affected basal enzyme activity
- inhibition at 1000 µM (guanylate cyclase [3]; [7]): 11 to 21%
- inhibition at 1000 µM (guanylate cyclase [3]; [8]): 0%
- effect on ST-induced responses (in words) ([2]; mouse, in vivo): No significant inhibition
- intestinal fluid ratio (intestinal weight to remaining body weight), ST-induced ([2]; mouse, in vivo): 0.0796±0.005 and 0.1061±0.005
- effect on ST-induced secretion (in words) ([2]; mouse, in vivo, sc): no inhibition
- intestinal fluid ratio (intestinal weight to remaining body weight), ST-induced ([2]; mouse, in vivo, sc): 0.0804±0.003
- Intestinal:Body Wt. Ratio, 8-bromo cyclic GMP-induced [4]: 0.1028 ± 0.003
- Intestinal:Body Wt. Ratio, 8-bromo cyclic GMP-induced ([4]; sc): 0.1024 ± 0.003
- effect on basal fluid level (in words) [5]: not altered
- effect on basal intestinal fluid level (in words) [5]: not affected

Compound: N[C@H](CSSC[C@@H](N)C(=O)O)C(=O)O [D-cystine]
- effect on ST-induced guanylate cyclase activity (in words) (guanylate cyclase [3]; 1 mM): significantly reduced
- effect on basal guanylate cyclase activity (in words) (guanylate cyclase [3]; 1 mM): neither drug affected basal activity
- effect on basal guanylate cyclase activity (in words) (guanylate cyclase [3]; concentration not given): Neither compound inhibited basal guanylate cyclase activity
- inhibition at 1000 µM (guanylate cyclase [3]; [7]): 33%
- inhibition at 1000 µM (guanylate cyclase [3]; [8]): 0%
- effect on ST-induced intestinal secretion (in words) ([2]; mouse, in vivo): significantly reduced
- intestinal fluid ratio (intestinal weight to remaining body weight), ST-induced ([2]; mouse, in vivo): 0.1034±0.004 and 0.1197±0.004
- effect on ST-induced secretion (in words) ([2]; mouse, in vivo, sc): neither compound reduced intestinal secretion
- intestinal fluid ratio (intestinal weight to remaining body weight), ST-induced ([2]; mouse, in vivo, sc): 0.1092±0.011
- Intestinal:Body Wt. Ratio, 8-bromo cyclic GMP-induced [4]: 0.1048 ± 0.004
- effect on 8-bromo cyclic GMP-induced intestinal secretion (in words) [4]: Neither compound altered cyclic GMP-induced intestinal secretion
- Intestinal:Body Wt. Ratio, 8-bromo cyclic GMP-induced ([4]; sc): 0.1001 ± 0.005
- effect on basal secretion (in words) [5]: Neither agent given s.c. or i.g. significantly altered basal secretion

Compound: N[C@H](CS)C(=O)O [D-cysteine]
- % Inhibition of ST-activated guanylate cyclase activity (guanylate cyclase [3]): 16%
- effect on basal guanylate cyclase activity (in words) (guanylate cyclase [3]; 1 mM): did not alter basal guanylate cyclase activity; also recorded: None of the other sulfhydryl compounds (1 mM) affected basal enzyme activity
- inhibition at 1000 µM (guanylate cyclase [3]; [7]): 11 to 21%
- inhibition at 1000 µM (guanylate cyclase [3]; [8]): 0%
- intestinal fluid ratio (intestinal weight to remaining body weight), ST-induced ([2]; mouse, in vivo): 0.0768±0.002 and 0.1121±0.005
- effect on ST-induced fluid responses (in words) ([2]; mouse, in vivo, sc): neither D- or L-cysteine inhibited ST-induced fluid responses
- Intestinal:Body Wt. Ratio, 8-bromo cyclic GMP-induced [4]: 0.1191 ± 0.006
- Intestinal:Body Wt. Ratio, 8-bromo cyclic GMP-induced ([4]; sc): 0.1155 ± 0.005
- effect on basal intestinal fluid level (in words) [5]: No effect on basal fluid level
